Measured values published in publication PMC10528299, “Targeting FAK/PYK2 with SJP1602 for Anti-Tumor Activity in Triple-Negative Breast Cancer” (Current Issues in Molecular Biology, 2023).

Legend:
HCC70 = test: 3D spheroid assay HCC70; assay type: cell-based; details: Homo sapiens, 96 h; HCC70, 4 days treatment; read-out: IC50 3D spheroid cell viability
Experimental: Breast cancer cell lines were cultured in medium with or without 2% Matrigel (Corning, NY, USA) for 3 days in each 96-well ultra-low attachment round plate to form a single spheroid at a density of 3 × 10^3 cells/well. SJP1602 was dissolved in DMSO and treated for 4 days at concentrations ranging from 200 nM to 20 μM. Cell viability was quantified according to the manufacturer’s instructions using a CellTiter-Glo 3D cell viability assay (Promega, Madison, WI, USA). Luminescence was measured using the Tecan Spark 10M.

LKB1(h) = biological target: T1, LKB1(h) (Homo sapiens, UniProt Q15831); test: Eurofins kinase profiling; assay type: biochemical; details: read-out: residual kinase activity LKB1(h)
T1 construct: purchased Eurofins KinaseProfiler
T1 sequence (Q15831 1-433): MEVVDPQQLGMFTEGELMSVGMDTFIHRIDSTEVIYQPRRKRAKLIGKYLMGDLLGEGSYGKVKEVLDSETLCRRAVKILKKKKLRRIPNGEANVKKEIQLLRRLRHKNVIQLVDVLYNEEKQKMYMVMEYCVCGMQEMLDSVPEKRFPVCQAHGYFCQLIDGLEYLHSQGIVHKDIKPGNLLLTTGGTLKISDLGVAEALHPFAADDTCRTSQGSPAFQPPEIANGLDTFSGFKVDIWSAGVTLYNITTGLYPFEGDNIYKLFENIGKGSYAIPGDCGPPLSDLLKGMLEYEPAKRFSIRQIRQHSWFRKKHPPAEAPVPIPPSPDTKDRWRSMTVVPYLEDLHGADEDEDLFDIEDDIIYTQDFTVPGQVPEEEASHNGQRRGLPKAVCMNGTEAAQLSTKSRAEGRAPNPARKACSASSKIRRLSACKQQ
T1 sequence (Q7RTN6 1-431 partner): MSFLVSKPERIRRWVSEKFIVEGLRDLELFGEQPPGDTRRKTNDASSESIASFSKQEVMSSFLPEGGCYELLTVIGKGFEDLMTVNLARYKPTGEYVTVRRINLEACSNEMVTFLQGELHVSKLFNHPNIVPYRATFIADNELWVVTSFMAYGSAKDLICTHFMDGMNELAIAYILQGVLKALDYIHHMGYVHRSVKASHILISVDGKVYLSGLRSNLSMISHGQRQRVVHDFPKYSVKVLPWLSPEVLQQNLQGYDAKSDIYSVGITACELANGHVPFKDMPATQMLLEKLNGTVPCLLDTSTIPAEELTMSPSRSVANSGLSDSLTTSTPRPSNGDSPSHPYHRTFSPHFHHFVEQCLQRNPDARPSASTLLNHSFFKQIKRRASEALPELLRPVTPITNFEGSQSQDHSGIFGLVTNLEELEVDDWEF
T1 sequence (Q9Y376 1-341 partner): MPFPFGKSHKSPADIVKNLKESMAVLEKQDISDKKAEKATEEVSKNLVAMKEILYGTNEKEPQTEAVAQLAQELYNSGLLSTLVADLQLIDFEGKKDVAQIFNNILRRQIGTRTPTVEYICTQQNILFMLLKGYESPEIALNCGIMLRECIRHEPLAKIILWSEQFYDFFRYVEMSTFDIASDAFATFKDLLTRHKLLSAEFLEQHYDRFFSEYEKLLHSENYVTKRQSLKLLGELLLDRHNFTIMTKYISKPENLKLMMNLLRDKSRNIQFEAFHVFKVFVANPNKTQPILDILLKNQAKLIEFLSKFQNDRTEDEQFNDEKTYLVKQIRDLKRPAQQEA
Experimental: (§1) The kinase profiling analysis was performed at Eurofins (Poitiers, France). A total of 110 kinase assays were carried out according to Eurofins’ standard protocols. For protein kinase assays, the kinase activity was measured using Eurofins’ KinaseProfiler radiometric assay. In this assay, a panel of kinases was incubated with the test compound SJP1602 at a concentration of 1 µM, and the kinase activity was determined using radiolabeled phosphate as a substrate. Lipid and atypical kinase assays were conducted using Eurofins’ homogeneous time-resolved fluorescence assay. The same panel of kinases was incubated with SJP1602 at a concentration of 1 µM, and the activity of lipid and atypical kinases was measured using this assay.

[1] = biological target: T2, PI3 Kinase (p110d/p85a)(h) (Homo sapiens, UniProt O00329); test: Eurofins kinase profiling; assay type: biochemical; details: read-out: residual kinase activity PI3 Kinase (p110d/p85a)(h)
T2 construct: purchased Eurofins KinaseProfiler
Experimental: as §1

PKCε(h) = biological target: T3, PKCε(h) (Homo sapiens, UniProt Q02156); test: Eurofins kinase profiling; assay type: biochemical; details: read-out: residual kinase activity PKCε(h)
T3 construct: purchased Eurofins KinaseProfiler
T3 sequence (Q02156 1-737): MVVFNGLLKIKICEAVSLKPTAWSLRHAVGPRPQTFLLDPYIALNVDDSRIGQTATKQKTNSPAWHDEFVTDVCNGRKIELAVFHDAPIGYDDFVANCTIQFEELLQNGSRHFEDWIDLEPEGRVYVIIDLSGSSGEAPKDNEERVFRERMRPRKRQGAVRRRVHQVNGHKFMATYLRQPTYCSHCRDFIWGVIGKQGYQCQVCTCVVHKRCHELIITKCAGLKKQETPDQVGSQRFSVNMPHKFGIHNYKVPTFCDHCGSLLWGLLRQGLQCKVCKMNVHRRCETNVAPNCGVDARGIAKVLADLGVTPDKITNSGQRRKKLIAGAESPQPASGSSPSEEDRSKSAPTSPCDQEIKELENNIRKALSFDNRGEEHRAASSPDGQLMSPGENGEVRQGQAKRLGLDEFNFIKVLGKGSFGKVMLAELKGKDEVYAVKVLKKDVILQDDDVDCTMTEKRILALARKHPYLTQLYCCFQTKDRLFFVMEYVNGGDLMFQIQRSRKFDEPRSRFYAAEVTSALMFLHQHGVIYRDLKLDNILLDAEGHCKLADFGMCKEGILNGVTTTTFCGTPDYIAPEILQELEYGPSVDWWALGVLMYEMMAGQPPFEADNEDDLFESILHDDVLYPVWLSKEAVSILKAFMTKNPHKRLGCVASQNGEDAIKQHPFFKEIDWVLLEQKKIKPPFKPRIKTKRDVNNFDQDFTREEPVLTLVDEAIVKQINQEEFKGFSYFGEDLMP
Experimental: as §1

PKCη(h) = biological target: T4, PKCη(h) (Homo sapiens, UniProt P24723); test: Eurofins kinase profiling; assay type: biochemical; details: read-out: residual kinase activity PKCη(h)
T4 construct: purchased Eurofins KinaseProfiler
Experimental: as §1

T2 sequence (O00329 whole entry): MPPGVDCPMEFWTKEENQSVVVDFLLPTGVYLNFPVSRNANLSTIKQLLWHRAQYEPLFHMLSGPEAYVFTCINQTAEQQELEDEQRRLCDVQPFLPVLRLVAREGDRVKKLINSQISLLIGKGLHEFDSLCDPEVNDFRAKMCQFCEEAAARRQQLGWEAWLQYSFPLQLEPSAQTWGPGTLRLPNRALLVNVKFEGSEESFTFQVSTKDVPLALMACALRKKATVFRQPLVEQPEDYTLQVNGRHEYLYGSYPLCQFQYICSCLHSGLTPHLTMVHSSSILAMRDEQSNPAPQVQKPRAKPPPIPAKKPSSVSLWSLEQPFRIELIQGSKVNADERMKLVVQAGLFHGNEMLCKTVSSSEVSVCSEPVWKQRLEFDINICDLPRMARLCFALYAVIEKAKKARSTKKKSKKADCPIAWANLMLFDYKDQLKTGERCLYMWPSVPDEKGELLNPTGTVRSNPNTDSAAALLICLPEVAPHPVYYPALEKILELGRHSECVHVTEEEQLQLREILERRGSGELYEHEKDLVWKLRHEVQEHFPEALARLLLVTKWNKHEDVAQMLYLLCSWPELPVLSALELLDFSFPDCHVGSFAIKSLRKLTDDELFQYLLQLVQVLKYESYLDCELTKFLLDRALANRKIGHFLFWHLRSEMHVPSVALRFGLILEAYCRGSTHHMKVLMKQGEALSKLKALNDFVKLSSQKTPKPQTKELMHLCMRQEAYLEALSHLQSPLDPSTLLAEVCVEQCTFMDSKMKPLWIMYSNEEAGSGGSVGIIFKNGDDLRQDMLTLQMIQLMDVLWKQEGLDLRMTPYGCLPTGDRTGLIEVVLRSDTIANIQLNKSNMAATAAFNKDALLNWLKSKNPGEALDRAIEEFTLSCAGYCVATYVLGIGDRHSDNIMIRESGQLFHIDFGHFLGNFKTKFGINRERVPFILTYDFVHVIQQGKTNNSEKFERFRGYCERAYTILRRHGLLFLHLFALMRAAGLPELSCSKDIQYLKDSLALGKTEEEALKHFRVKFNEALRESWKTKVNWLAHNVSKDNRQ
T2 sequence (P27986 whole entry partner): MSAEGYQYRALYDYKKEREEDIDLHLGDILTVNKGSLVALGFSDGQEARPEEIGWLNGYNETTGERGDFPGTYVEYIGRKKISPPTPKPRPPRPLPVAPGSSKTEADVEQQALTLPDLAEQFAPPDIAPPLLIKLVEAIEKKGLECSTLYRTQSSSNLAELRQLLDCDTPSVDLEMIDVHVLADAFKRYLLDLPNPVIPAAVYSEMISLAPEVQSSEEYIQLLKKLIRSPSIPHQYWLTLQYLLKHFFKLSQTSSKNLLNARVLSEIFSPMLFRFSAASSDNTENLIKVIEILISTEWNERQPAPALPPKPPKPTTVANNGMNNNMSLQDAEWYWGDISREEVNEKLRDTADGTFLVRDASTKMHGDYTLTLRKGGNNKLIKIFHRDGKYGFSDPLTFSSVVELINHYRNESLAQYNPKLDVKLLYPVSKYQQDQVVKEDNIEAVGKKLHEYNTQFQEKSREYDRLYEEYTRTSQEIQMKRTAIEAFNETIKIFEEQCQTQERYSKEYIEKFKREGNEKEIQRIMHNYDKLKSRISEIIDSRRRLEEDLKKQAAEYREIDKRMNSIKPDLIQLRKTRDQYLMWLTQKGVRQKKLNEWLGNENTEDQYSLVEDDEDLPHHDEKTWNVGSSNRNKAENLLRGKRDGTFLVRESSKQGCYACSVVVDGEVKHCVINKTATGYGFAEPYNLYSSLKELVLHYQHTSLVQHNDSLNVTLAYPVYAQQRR
T4 sequence (P24723 whole entry): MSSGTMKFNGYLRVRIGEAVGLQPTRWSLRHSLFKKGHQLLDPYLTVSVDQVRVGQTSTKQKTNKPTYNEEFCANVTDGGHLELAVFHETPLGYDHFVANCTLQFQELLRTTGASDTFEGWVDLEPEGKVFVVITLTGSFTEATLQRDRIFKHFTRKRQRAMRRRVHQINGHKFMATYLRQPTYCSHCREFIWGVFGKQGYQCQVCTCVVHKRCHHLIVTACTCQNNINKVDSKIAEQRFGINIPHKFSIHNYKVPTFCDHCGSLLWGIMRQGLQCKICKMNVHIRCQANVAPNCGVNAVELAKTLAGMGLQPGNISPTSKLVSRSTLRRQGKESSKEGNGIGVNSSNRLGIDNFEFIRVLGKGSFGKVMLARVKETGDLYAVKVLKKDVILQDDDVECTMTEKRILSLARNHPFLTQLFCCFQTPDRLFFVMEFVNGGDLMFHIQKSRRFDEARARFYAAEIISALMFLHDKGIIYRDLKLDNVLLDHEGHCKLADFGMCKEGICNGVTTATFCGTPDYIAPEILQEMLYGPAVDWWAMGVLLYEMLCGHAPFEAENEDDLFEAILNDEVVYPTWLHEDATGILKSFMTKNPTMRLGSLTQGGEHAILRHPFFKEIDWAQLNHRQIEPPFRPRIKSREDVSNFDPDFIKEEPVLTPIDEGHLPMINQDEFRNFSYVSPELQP

remaining activity at 1 µM (LKB1(h)) [%] | remaining activity at 1 µM [1] [%] | remaining activity at 1 µM (PKCε(h)) [%] | remaining activity at 1 µM (PKCη(h)) [%] | SMILES | IC50 (HCC70) [µM]
98 | 115 | 112 | 97 | CONC(=O)c1ccccc1Nc1cc(Nc2cc(C)nn2C(C)C)ncc1Cl [GSK2256098] | > 10
89 | 88 | 98 | 104 | CNC(=O)c1ccc(Nc2ncc(C(F)(F)F)c(NCc3nccnc3N(C)S(C)(=O)=O)n2)cc1 [VS-6063, Defactinib] | 8.18

SMILES | remaining activity at 1 µM (LKB1(h)) [%] | remaining activity at 1 µM [1] [%] | remaining activity at 1 µM (PKCε(h)) [%] | remaining activity at 1 µM (PKCη(h)) [%] | IC50 (HCC70) [µM]
CNC(=O)c1cccc(C)c1Nc1nc(Nc2ccc(N3CCN(C4C5CC6CC4CC(O)(C6)C5)CC3)cc2OC)ncc1C(F)(F)F (stereo not drawn) [SJP1602, 2-((2-((4-(4-((2s,5r)-5-hydroxyadamantan-2-yl)piperazin-1-yl)-2-methoxyphenyl)amino)-5-(trifluoromethyl)pyrimidin-4-yl)amino)-N,3-dimethylbenzamide] | 96 | 91 | 103 | 95 | 1.45
